Reference: publication PMC7936271, “Discovery and characterization of bromodomain 2–specific inhibitors of BRDT” (Proceedings of the National Academy of Sciences of the …, 2021)
“And” between values parts separate entries of the source, which are not always exact repeats. Equal entries are not always repeated. Where two headings read alike, the source gives them in different places.

Columns and labels:
[1] = biological target: BRDT-BD2
[2] = biological target: BRDT-BD2 (Homo sapiens, UniProt Q58F21); assay: AlphaScreen competition assay with biotinylated JQ1, BRDT-BD2; type: binding; set-up: BRDT-BD2, NP_001717.3 amino acid 269− 380; made in house; host or cells: E. coli NiCo21 (DE3); conditions: for BRDT-BD2 activity / affinity: result in words; for BRDT-BD2 vs. BRD4-BD2 / BRDT-BD2 vs. BRDT-BD1 (BRDT-BD2 selectivity): ratio of AlphaScreen IC50 values
[3] = Metabolic stability assay in mouse liver microsomes; type: in vitro ADME; conditions: for half-life at 2 μM: read-out: t1/2, min MLM; for mouse microsomal stability: result in words
Method: (§1) 2d) Metabolic stability assay in liver microsomes. […]
(§2) The reactions are terminated by adding equivalent
(§3) volume of ice-cold CH3OH and vortexed.
(§4) temperature was ma i ntained at 40 °C.
(§5) (acetonitrile containing 0.1% formic acid). […]

[4] = biological target: BRD4-BD2 (Homo sapiens, UniProt O60885); assay: AlphaScreen competition assay with biotinylated JQ1, BRD4-BD2; type: binding; set-up: BD2, NP_055114.1 amino acid 333− 460; made in house; host or cells: E. coli NiCo21 (DE3)
[5] = biological target: BRD4-BD1
[6] = Metabolic stability assay in human liver microsomes; type: in vitro ADME; conditions: human liver microsomes, 2.0 μM, 37 °C, data >60 min are an extrapolated estimate; for half-life at 2 μM: read-out: t1/2, min HLM
Method: as §1, §2, §3, §4, §5

[7] = biological target: BRD4-BD2
[8] = biological target: T1, BRD4-BD1 (Homo sapiens, UniProt O60885); assay: AlphaScreen competition assay with biotinylated JQ1, BRD4-BD1; type: binding
T1 construct: amino acid 44− 168; made in house; host or cells: E. coli NiCo21 (DE3)

[9] = biological target: T2, BRDT-BD1 (Homo sapiens, UniProt Q58F21); assay: AlphaScreen competition assay with biotinylated JQ1, BRDT-BD1; type: binding
T2 construct: NP_001717.3 amino acid 21− 137; made in house; host or cells: E. coli NiCo21 (DE3)

[10] = tested on: BRDT-BD1
[11] = mouse liver microsomes, 2.0 μM, 37 °C, data >60 min are an extrapolated estimate
[12] = ratio of AlphaScreen IC50 values
[13] = AlphaScreen, biotinylated JQ1 as ligand
[14] = AlphaScreen, biotinylated JQ1 as ligand, NE: no effect at 20 µM

COc1ccc(NC(=O)c2ccc3c(c2)c(-c2ccc(N)cc2C)nn3C)cc1NC(=O)c1ccccc1
IC50 [1]: 35 nM

COc1ccc(NC(=O)c2ccc3c(c2)c(-c2cc4ccccc4n2C)nn3C)c(OC)c1
IC50 [1]: 926 nM

CNC(=O)c1ccc(C(=O)Nc2cc(NC(=O)c3ccc4c(c3)c(-c3ccncc3)nn4C)ccc2C)cc1 [Compound 12]
BRDT-BD2 activity / affinity ([2]; AlphaScreen): weaker-binding | IC50 [1]: 978 nM

CNC(=O)c1ccc(C(=O)Nc2cc(NC(=O)c3ccc4c(c3)c(-c3cc5ccccc5n3C)nn4C)ccc2C)cc1 [Compound 8]
half-life at 2 μM [3, 11]: 0.85 h | IC50 [4]: 31 nM | BRD4-BD2 vs. BRD4-BD1 (BRD4-BD2 selectivity) [4, 12]: 850 | IC50 [5]: 26200 nM | IC50 [2]: 13 nM | BRDT-BD2 activity / affinity ([2]; AlphaScreen): low nanomolar affinity | BRDT-BD2 vs. BRD4-BD2 [2]: 2.4 | BRDT-BD2 vs. BRDT-BD1 (BRDT-BD2 selectivity) [2]: >750 | half-life at 2 μM [6]: 2.5 h | IC50 [7]: 31 nM | IC50 [1]: 13 nM | IC50 [8]: 26200 nM | IC50 [9]: > 10000 nM | inhibition at 10 µM ([9]; read-out: Inhibition at 10 µM for BRDT-BD1): 11% | % inhibition at 10 µM [10]: 11% | IC50 [10]: > 10000 nM

CNC(=O)c1ccc(C(=O)Nc2cc(NC(=O)c3ccc4c(c3)c(-c3ccc(OC)cc3)nn4C)ccc2C)cc1
IC50 [1]: 521 nM | IC50 [10]: > 10000 nM

CC(=O)Nc1cc(NC(=O)c2ccc3c(c2)c(-c2ccc(N)nc2)nn3C(C)C)ccc1C
IC50 [1]: 253 nM | IC50 [10]: > 10000 nM

CNC(=O)c1ccc(C(=O)Nc2cc(NC(=O)c3ccc4c(c3)c(-c3ccc(N)cc3)nn4C)ccc2OC)cc1
IC50 [1]: 15 nM | IC50 [10]: > 10000 nM

CNC(=O)c1ccc(C(=O)Nc2cc(NC(=O)c3ccc4c(c3)c(-c3cnc(N)cc3C)nn4C)ccc2C)cc1 [Compound 15]
t1/2, min MLM [3, 11]: 2.5 h | mouse microsomal stability [3]: high mouse microsomal stability | BRD4-BD2 vs. BRD4-BD1 (BRD4-BD2 selectivity) [4]: >140 | IC50 [4, 13]: 140 nM | IC50 [2, 13]: 22 nM | BRDT-BD2 activity / affinity ([2]; AlphaScreen): lower affinity than compound 10 | BRDT-BD2 vs. BRD4-BD2 ([2]; listed as 15 (CDD-1349)): 6.4 | BRDT-BD2 vs. BRD4-BD2 ([2]; listed as CDD-1349): sixfold | t1/2, min HLM [6]: 3.67 h | IC50 [7]: 140 nM | IC50 [1]: 22 nM | IC50 [8, 14]: > 20000 nM | IC50 [9, 14]: > 20000 nM

CC(=O)Nc1cc(NC(=O)c2ccc3c(c2)c(-c2cnc(N)cc2C)nn3C)ccc1C
IC50 [1]: 126 nM

CNC(=O)c1cc(NC(=O)c2ccc3c(c2)c(-c2ccc(N)cc2C)nn3C)ccc1C [Compound 22]
half-life at 2 μM [3, 11]: 2.5 h | mouse microsomal stability [3]: high mouse microsomal stability | IC50 [4]: 20 nM | BRD4-BD2 vs. BRD4-BD1 (BRD4-BD2 selectivity) [4, 12]: 540 | IC50 [5]: 10900 nM | IC50 [2]: 18 nM | BRDT-BD2 activity / affinity ([2]; AlphaScreen): minimal effects on potency | BRDT-BD2 vs. BRD4-BD2 [2]: 1.1 | BRDT-BD2 vs. BRDT-BD1 (BRDT-BD2 selectivity) [2]: 590 | half-life at 2 μM [6]: 7.67 h | IC50 [7]: 20 nM | IC50 [1]: 18 nM | IC50 [8]: 10900 nM | IC50 [9]: 10700 nM | IC50 [10]: > 10000 nM and 10700 nM

COc1ccc(NC(=O)c2ccc3c(c2)c(-c2cc4ccccc4n2C)nn3C)cc1
IC50 [1]: 121 nM

COc1ccc(NC(=O)c2ccc3c(c2)c(-c2cc4ccccc4n2C)nn3C)c(F)c1
IC50 [1]: 203 nM

COc1ccc(NC(=O)c2ccc3c(c2)c(-c2cc4ccccc4n2C)nn3C)cc1OC
IC50 [1]: 101 nM

COc1ccc(NC(=O)c2ccc3c(c2)c(-c2cc4ccccc4n2C)nn3C)cc1C
IC50 [1]: 111 nM

COc1ccc(NC(=O)c2ccc3c(c2)c(-c2cc4ccccc4n2C)nn3C)c(Cl)c1
IC50 [1]: > 1250 nM

CCn1nc(-c2ccc(N)nc2)c2cc(C(=O)Nc3ccc(C)c(NC(C)=O)c3)ccc21
IC50 [1]: 79 nM | IC50 [10]: > 10000 nM
